# In patent US6423855B1, “Cytoprotective compounds” (Virginia Commonwealth University, priority 1996, dated 2002):
# pIC50: −log10 of the molar value. “Also recorded” adds a separate entry of the source. Where two headings read alike, the source gives them in different places.
# What was measured:
# [1] = test system: basal production of prostaglandins; assay: whole blood eicosanoid release, basal; type: cell-based, human; conditions: no stimulus
# Method: (§1) The following protocol was employed to evaluate effects of PX-18 on production of leukotrienes and prostaglandins by blood cells under basal conditions, with ionophore stimulation of cyclooxygenase type I, and with lipopolysaccharide (LPS) induction of cyclooxygenase type II. Freshly-obtained heparinized blood from medication-free donors is diluted 1:1 with RPMI, and aliquoted in 0.6 ml amounts in sterile polypropylene 12×75 […] tubes. Test drugs are added at appropriate concentrations and diluted in saline with 1% human serum albumin. Control tubes have only diluent or drug vehicle added. Drugs are added five minutes prior to addition of stimulus, at 100×concentrations, (6 μl volumes). This is replicated for 3 racks of tubes, A thru C. A has no stimulus added, and has a 30 minute and 6 hr. tube for each drug concentration. B has 20 uM of the calcium ionophore A23187 added, and is incubated at 37° C. for 30 minutes. C has 5 ug/ml of E. coli strain Bort LPS added, and is incubated at 37° C. for 6 hours. At the end each time period, the appropriate tubes are placed on ice, centrifuged, and 0.4 ml of plasma carefully decanted into a tube containing formic acid and BHT to stop all reactions and preserve eicosanoid products. These tubes are then frozen at −70° C. for up to one week, then applied to Sep-pac mini columns and extracted into methanol. […]
# cyclooxygenase I = assay: whole blood eicosanoid release, ionophore stimulation; type: cell-based, human; conditions: 20 uM A23187, 30 minutes
# Method: as §1
# [2] = test system: lipoxygenase products such as LTC4; assay: whole blood production of lipoxygenase products; type: cell-based, human; conditions: comparison to MK 592
# Method: as §1
# cyclooxygenase II = assay: whole blood eicosanoid release, LPS induction; type: cell-based, human; conditions: 5 ug/ml E. coli LPS, 6 hours, 37° C.
# Method: as §1
# [3] = test system: drug-resistant P. falciparum strains; assay: growth of the same drug-resistant P. falciparum strains (PX-18); type: cell-based, Plasmodium falciparum; conditions: for IC50: two strains as described above, which value for which strain not stated
# [4] = molecular target: T1, purified human disc type II, PLA2 (Homo sapiens, UniProt P14555); assay: inhibition of purified human disc type II PLA2; type: biochemical
# T1 construct: the purified human disc type II, PLA2; from tissue; host or cells: human vertebral (herniated) disc
# T1 sequence (P14555 21-144): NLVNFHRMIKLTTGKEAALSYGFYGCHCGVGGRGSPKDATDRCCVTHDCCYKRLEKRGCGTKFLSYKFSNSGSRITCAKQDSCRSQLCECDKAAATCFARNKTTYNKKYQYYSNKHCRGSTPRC
# Method: Both PX-13 and PX-18 inhibit the purified human disc type II, PLA2. PLA2 activity was measured as described in Franson et al., Prostaglandins, Leukotrienes and Essential Fatty Acids, 43:63-70, 1991, which is herein incorporated by reference in its entirety.
# pancreatin = assay: degradation in vitro by pancreatin; type: in vitro ADME; conditions: commercial pancreatic enzyme preparation (Sigma)
# Source text: The compounds of the present invention are not generally hydrolyzed by pancreatic enzymes and are different from glycerol-based compounds in terms of their chemistry and metabolism. […] The resistance of PX-13 and PX-18 to metabolism by pancreatic enzymes supports their stability after oral administration.
# basophils = assay: histamine release from basophils (anti-human IgE, diluted blood); type: cell-based
# Method: The protocol to evaluate the effects of PX-18 on histamine release is described below. Freshly drawn heparinized blood from donors non-medicated for 3 days is diluted 1:5 with PBS containing 1% human serum albumin (diluent). Test drugs are diluted in diluent to 10 times final concentration, and 25 μl per well is added to duplicate wells of round-bottomed microtiter plates. Generally 3-fold dilutions of drug are examined four or five times. 200 μl of diluted blood is then added to each well. 5 minutes later, […] of rabbit anti-human IgE (purchased from Dako) is added per well, to give final concentrations of 1/400 and 1/1200 of antibody. Unstimulated (background release wells) have 25 μl of diluent added. Plates are gently tapped for mixing, then incubated for 30 minutes. After incubation, plates are cooled on ice, spun down in a refrigerated centrifuge, and replaced on ice. 100 μl plasma is removed from each well for assay, and placed in a 1.5 ml Eppendorf tube containing acetylation reagent. Following acetylation, the histamine adduct is quantitated by a sensitive and specific commercial competitive assay, utilizing the competition of enzyme conjugated acetyl-histamine with sample analyte for binding to a specific antibody on the solid phase. A sample of blood is also lysed by repeated freeze/thaw to determine total blood histamine. Results are expressed as a percentage of total blood histamine release. In an acceptable assay maximal release is greater than 45% and background release is less than 15%. Experiments are performed in duplicate or triplicate using separate blood donors.
# [5] = test system: lipoxygenase and cyclooxygenase; assay: lipoxygenase and cyclooxygenase metabolites with exogenous arachidonic acid; type: cell-based; conditions: exogenous arachidonic acid added
# Source text: The comparison is to MK 592, a selective lipoxygenase inhibitor.
# small bowel graft = assay: small bowel transplantation ischemia-reperfusion injury; type: in vivo, rat
# Method: (§2) These drugs were also tested for their ability to enhance the preservation of tissues stored for subsequent transplantation. The small bowel was removed from rats, washed free of luminal contents and the tissue stored in University of Wisconsin (UW) preservative media ±40 uM PX-13 or mepacrine for 48 hrs. The graft was then transplanted into rats with or without intravenous (IV) infusion of 20 mg/kg PX-13 or mepacrine at the time of transplantation.
# human blood cells = assay: preservation of whole blood (LDH and hemoglobin release); type: cell-based; conditions: 20 uM
# Method: The effect of PX-13 and mepacrine on whole blood cell viability were tested as a function of time of storage.
# Heparinized human blood was centrifuged at 400×g and the resulting plasma was removed and replaced with an equal volume of Dulbecco's medium. The resuspended cells were then incubated at 37° C. for 0-72 hrs. in a shaking water bath. At the indicated times, a 0.8 ml aliquot was removed and centrifuged at 400×g to sediment cells. Appearance of lactate dehydrogenase (LDH) and hemoglobin in the supernate was indicative of cell injury. PX-13 and mepacrine stabilized cells and decreased the injury as evidenced by diminished levels of LDH and hemoglobin in the supernate. This is expressed as percent protection.
# [6] = test system: larval forms of an animal filarid; assay: molting of larval forms of a filarid
# Source text: Infections caused by parasites constitute a major public health problem throughout the world for humans and animals, annually resulting in significant incidence of disease, suffering and death. Parasites such as those that cause malaria and other protozoal parasites of animals and humans are especially troublesome.
# [7] = small bowel storage in perfusate solution, tissue weight; design: species or system rat; conditions: 24 and 48 hours in the perfusate solution
# Method: These drugs were also tested for their ability to enhance the preservation of tissues stored for subsequent transplantation. […] The graft was then transplanted into rats with or without intravenous (IV) infusion of 20 mg/kg PX-13 or mepacrine at the time of transplantation.
# [8] = test system: PLA2 activity in extracts of rat bowel; assay: PLA2 activity in extracts of rat bowel; type: biochemical
# [9] = peroxidation (malondialdehyde formation) of homogenized rat bowel
# Method: as §2, with “of transplantation. Upon transplantation, the bowel is immediately injured as evidenced by tissue darkening within two minutes. […] Both PX-13 and mepacrine inhibit the peroxidation (malondialdehyde formation) of homogenized rat bowel, an indication that the membrane-stabilizing, PLA2-inhibitors, also have anti-oxidant activity.” for “of transplantation.”
compound,measurement,setting,value
"CCCCCCCC/C=C\CCCCCCCC(=O)OCCN(CCOC(=O)CCCCCCC/C=C\CCCCCCCC)CCS(=O)(=O)O [PX-18, 2-[N,N-Bis(2-oleoyloxyethyl)amino]-1-ethanesulfonic acid]",inhibition of basal production of prostaglandins,[1],even less or no inhibition
same,inhibition of constitutive cyclooxygenase I,cyclooxygenase I,less inhibition
same,production of lipoxygenase products such as LTC4,[2],inhibited
same,inhibition of cytokine-inducible cyclooxygenase II,cyclooxygenase II,strongly inhibit
same,effectiveness relative to PX-13,[3],10 times
same,IC50,"[3]; Plasmodium falciparum, read-out: IC50",1.3 µg/mL
same,IC50,[3],2.4 µg/mL
same,pIC50,[4],6.52
same,degradation in vitro by pancreatin,pancreatin,resistant to degradation
same,efficacy relative to cromolyn,basophils,more efficacious than cromolyn
same,potency relative to epinephrine,basophils,equipotent to epinephrine
same,degranulation of basophils,basophils; stimulus antibody to surface-bound IgE,inhibits
same,production of lipoxygenase and cyclooxygenase metabolites,[5],does not inhibit
"CCN(CC)CCCC(C)Nc1c2ccc(Cl)cc2nc2ccc(OC)cc12 (centres unmarked) [mepacrine, reference compound]",gross and microscopic injury to tissue,"small bowel graft; 40 uM in UW media 48 hrs, with or without 20 mg/kg IV at transplantation",dramatically reduced
same,protection against ischemia and reperfusion injury,small bowel graft; small bowel transplantation,protect; also recorded: some protection although not as great as with PX-13
same,Percent Protection Hemoglobin,human blood cells; 48 hr,61%
same,Percent Protection LDH,"human blood cells; 48 hr, 37° C.",58%
same,Percent Protection Hemoglobin,human blood cells; 72 hr,45%
same,Percent Protection LDH,human blood cells; 72 hr,27%
same,molting of larval forms,[6],significantly reduced
same,weight of the tissues after storage,[7],reduced weight
same,inhibition of PLA2 activity,[8],inhibited
same,peroxidation (malondialdehyde formation),[9],inhibit
